According to the supplement of paper PMC10307832:

Tests used:
Assay in all cases: relative viability (nuclei count vs DMSO), 5 days (fraction); higher = more cells survive
Metformin + Olaparib = compound: CN(C)C(=N)NC(=N)N [Metformin] + O=C(c1cc(Cc2n[nH]c(=O)c3ccccc23)ccc1F)N1CCN(C(=O)C2CC2)CC1 [Olaparib] (partner 8 µM)
Method in brief: (§1)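 Relative viability divides the nuclei count in treated wells by that in vehicle wells. Lung cancer cell lines were seeded in 1536-well plates, dosed by pin tool the next day, and fixed and stained after 5 days in one step with final 0.05% Triton X-100, 1% formaldehyde and 1 ug/ml Hoechst. Dosing was a single drug or a fixed anchor-drug dose plus five library-drug doses (not always all listed) in √10 steps, and values are medians of duplicate plates imaged at 4×.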

Metformin + Tozasertib = compound: CN(C)C(=N)NC(=N)N [Metformin] + Cc1cc(Nc2cc(N3CCN(C)CC3)nc(Sc3ccc(NC(=O)C4CC4)cc3)n2)n[nH]1 [Tozasertib] (partner 0.1 µM)
Method in brief: as §1

Metformin + Lapatinib = compound: CN(C)C(=N)NC(=N)N [Metformin] + CS(=O)(=O)CCNCc1ccc(-c2ccc3ncnc(Nc4ccc(OCc5cccc(F)c5)c(Cl)c4)c3c2)o1 [Lapatinib] (partner 2 µM)
Method in brief: as §1

Metformin + Bortezomib = compound: CN(C)C(=N)NC(=N)N [Metformin] + CC(C)C[C@H](NC(=O)[C@H](Cc1ccccc1)NC(=O)c1cnccn1)B(O)O [Bortezomib] (partner 0.002 µM)
Method in brief: as §1

Cell Line	relative viability (Metformin + Olaparib; first compound 10 µM)	relative viability (Metformin + Olaparib; first compound 31.62 µM)	relative viability (Metformin + Olaparib; first compound 100 µM)	relative viability (Metformin + Olaparib; first compound 316.23 µM)	relative viability (Metformin + Olaparib; first compound 1000 µM)	relative viability (Metformin + Tozasertib; first compound 31.62 µM)	relative viability (Metformin + Tozasertib; first compound 100 µM)	relative viability (Metformin + Tozasertib; first compound 316.23 µM)	relative viability (Metformin + Tozasertib; first compound 1000 µM)	relative viability (Metformin + Lapatinib; first compound 10 µM)	relative viability (Metformin + Lapatinib; first compound 31.62 µM)	relative viability (Metformin + Lapatinib; first compound 100 µM)	relative viability (Metformin + Lapatinib; first compound 316.23 µM)	relative viability (Metformin + Lapatinib; first compound 1000 µM)	relative viability (Metformin + Bortezomib; first compound 10 µM)	relative viability (Metformin + Bortezomib; first compound 31.62 µM)	relative viability (Metformin + Bortezomib; first compound 100 µM)	relative viability (Metformin + Bortezomib; first compound 316.23 µM)	relative viability (Metformin + Bortezomib; first compound 1000 µM)	relative viability (Metformin + Tozasertib; first compound 10 µM)
HCC-15	0.532	0.615	0.47	0.571	0.585	0.489	0.395	0.412	0.521	0.54	0.908	0.891	0.785	0.913	0.617	1.08	1.04	0.932	1.09	–
NCI-H1993	1.01	1.02	1.12	0.882	0.955	0.551	0.609	0.571	0.596	0.761	0.823	0.814	0.741	0.804	1.09	1.19	1.12	1.18	1.39	0.622
NCI-H1915	–	0.24	0.228	0.222	0.244	0.452	0.466	0.416	0.489	–	1.07	0.973	0.976	1	–	1.01	0.985	0.961	1.02	–
ABC-1	–	0.817	1.08	0.218	0.36	0.163	0.172	0.158	0.189	1.53	1.12	1.4	1.59	0.851	–	0.294	0.334	0.277	0.344	0.223
NCI-H2087	0.316	0.453	0.414	0.426	0.473	0.281	0.246	0.253	0.245	0.597	0.902	1.02	1.06	0.895	0.564	0.791	0.691	0.786	0.744	–
NCI-H1755	0.735	0.774	0.79	0.716	0.829	0.519	0.474	0.509	0.497	0.763	0.956	1.02	0.929	0.99	0.861	0.913	0.843	0.783	0.896	0.446
HCC-366	0.255	0.21	0.213	0.203	0.213	0.141	0.111	0.135	0.163	1.05	1.05	1	1.07	1.01	1.09	1.11	1.01	1.02	1.12	0.142
SW 1573	0.441	0.468	0.471	0.381	0.352	0.119	0.175	0.161	0.162	1.1	1.09	1.09	1.03	1.18	1.19	1.15	0.963	1	1.36	0.153
HCC-827	0.487	0.366	0.484	0.415	0.424	0.422	0.442	0.387	0.439	–	0.216	0.185	0.232	0.18	–	0.952	1.12	0.919	0.925	–
LOU-NH91	0.859	0.894	0.865	0.883	0.845	0.633	0.703	0.633	0.65	0.784	0.775	0.725	0.755	0.71	0.515	0.504	0.511	0.56	0.474	0.595
CAL-12T	0.612	0.661	0.61	0.611	0.744	0.388	0.408	0.363	0.35	0.645	0.801	0.794	0.618	0.736	1.16	0.935	1.02	1.06	1.15	0.437
BEN	1.11	1.18	1.23	1.1	0.708	0.494	0.439	0.516	0.395	0.976	1.12	1.15	0.925	0.583	1.08	1.18	0.775	0.993	0.511	0.476
EMC-BAC-2	0.381	0.394	0.401	0.339	0.361	0.307	0.317	0.289	0.32	0.886	0.951	0.891	0.843	0.925	1.09	1.11	1.04	1.11	1.09	0.29
NCI-H1355	0.696	0.715	0.713	0.679	0.757	0.654	0.684	0.504	0.757	0.884	0.955	0.946	0.982	1.06	1.1	1.18	1.14	1.17	1.24	0.613
A-427	0.645	0.773	0.708	0.625	0.447	0.255	0.224	0.185	0.245	0.943	1.06	1.04	0.994	0.951	0.997	1	0.94	0.963	0.901	0.225
NCI-H596	0.817	0.795	0.78	0.74	0.734	0.93	1.1	0.985	0.938	1.18	1.22	1.07	1.06	1.2	1.05	1.13	1.3	1.27	1.21	0.955
NCI-H2228	0.399	0.344	0.483	0.802	0.578	0.31	0.241	0.333	0.409	1.46	1.25	–	0.974	1.24	1.44	1.09	–	0.956	1.13	0.27
